Measured values taken from patent US20260274829A1, “NEW E3 UBIQUITIN LIGASE LIGAND, PROTEIN DEGRADATION AGENT AND USE THEREOF” (GLUETACS THERAPEUTICS (SHANGHAI) CO., LTD., priority 2023, published 2026).

What was measured:
Type in all cases: cell-based
IKZF3 = target: T1, IKZF3 (Homo sapiens, UniProt Q96SW2+Q9UKT9); test: Western blot degradation of IKZF3 in hPBMC
T1 construct: endogenous in cells; host or cells: hPBMC
In short: (§1)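 hPBMC, compound-treated; SDS-PAGE Western, NC membrane, 1 h RT block. DC50 = conc. at 50% of DMSO band grayscale (curve fit). % remaining = target/internal control band ratio, normalized.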

WEE1 = target: T2, WEE1 (Homo sapiens, UniProt P30291+Q96SW2); test: Western blot degradation of WEE1 in hPBMC
T2 construct: endogenous in cells; host or cells: hPBMC
In short: as §1

CK1a = target: T3, CK1a (Homo sapiens, UniProt P48729+Q96SW2); test: Western blot degradation of CK1a in hPBMC
T3 construct: endogenous in cells; host or cells: hPBMC
In short: as §1

IKZF1 = target: T4, IKZF1 (Homo sapiens, UniProt Q13422+Q96SW2); test: Western blot degradation of IKZF1 in hPBMC
T4 construct: endogenous in cells; host or cells: hPBMC
In short: as §1

IKZF2 = target: T5, IKZF2 (Homo sapiens, UniProt Q96SW2+Q9UKS7); test: Western blot degradation of IKZF2 in hPBMC
T5 construct: endogenous in cells; host or cells: hPBMC
In short: as §1

GSPT1 = target: T6, GSPT1 (Homo sapiens, UniProt P15170+Q96SW2); test: Western blot degradation of GSPT1 in hPBMC
T6 construct: endogenous in cells; host or cells: hPBMC
In short: as §1

T3 sequence (P48729 whole entry): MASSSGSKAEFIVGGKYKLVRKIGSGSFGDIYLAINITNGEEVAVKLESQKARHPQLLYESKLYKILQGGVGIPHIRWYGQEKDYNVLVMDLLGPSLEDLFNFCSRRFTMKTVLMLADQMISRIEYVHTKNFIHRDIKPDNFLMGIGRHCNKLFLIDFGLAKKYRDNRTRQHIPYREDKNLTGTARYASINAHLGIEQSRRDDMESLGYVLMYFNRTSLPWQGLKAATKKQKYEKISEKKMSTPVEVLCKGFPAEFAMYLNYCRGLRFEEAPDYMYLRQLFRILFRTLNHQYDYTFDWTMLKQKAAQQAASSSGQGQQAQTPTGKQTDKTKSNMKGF
T3 sequence (Q96SW2 whole entry): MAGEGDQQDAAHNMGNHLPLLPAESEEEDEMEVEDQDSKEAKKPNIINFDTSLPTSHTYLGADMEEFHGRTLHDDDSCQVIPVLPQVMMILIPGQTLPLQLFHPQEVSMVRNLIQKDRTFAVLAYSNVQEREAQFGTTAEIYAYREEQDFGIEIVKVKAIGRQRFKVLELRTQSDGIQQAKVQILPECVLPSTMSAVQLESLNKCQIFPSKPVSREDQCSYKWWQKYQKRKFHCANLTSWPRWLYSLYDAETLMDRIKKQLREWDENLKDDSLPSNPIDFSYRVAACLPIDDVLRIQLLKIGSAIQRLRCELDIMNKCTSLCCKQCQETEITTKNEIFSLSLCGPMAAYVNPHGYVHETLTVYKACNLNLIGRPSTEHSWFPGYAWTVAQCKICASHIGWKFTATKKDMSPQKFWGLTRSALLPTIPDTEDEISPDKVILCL
T3 sequence (Q16531 whole entry partner): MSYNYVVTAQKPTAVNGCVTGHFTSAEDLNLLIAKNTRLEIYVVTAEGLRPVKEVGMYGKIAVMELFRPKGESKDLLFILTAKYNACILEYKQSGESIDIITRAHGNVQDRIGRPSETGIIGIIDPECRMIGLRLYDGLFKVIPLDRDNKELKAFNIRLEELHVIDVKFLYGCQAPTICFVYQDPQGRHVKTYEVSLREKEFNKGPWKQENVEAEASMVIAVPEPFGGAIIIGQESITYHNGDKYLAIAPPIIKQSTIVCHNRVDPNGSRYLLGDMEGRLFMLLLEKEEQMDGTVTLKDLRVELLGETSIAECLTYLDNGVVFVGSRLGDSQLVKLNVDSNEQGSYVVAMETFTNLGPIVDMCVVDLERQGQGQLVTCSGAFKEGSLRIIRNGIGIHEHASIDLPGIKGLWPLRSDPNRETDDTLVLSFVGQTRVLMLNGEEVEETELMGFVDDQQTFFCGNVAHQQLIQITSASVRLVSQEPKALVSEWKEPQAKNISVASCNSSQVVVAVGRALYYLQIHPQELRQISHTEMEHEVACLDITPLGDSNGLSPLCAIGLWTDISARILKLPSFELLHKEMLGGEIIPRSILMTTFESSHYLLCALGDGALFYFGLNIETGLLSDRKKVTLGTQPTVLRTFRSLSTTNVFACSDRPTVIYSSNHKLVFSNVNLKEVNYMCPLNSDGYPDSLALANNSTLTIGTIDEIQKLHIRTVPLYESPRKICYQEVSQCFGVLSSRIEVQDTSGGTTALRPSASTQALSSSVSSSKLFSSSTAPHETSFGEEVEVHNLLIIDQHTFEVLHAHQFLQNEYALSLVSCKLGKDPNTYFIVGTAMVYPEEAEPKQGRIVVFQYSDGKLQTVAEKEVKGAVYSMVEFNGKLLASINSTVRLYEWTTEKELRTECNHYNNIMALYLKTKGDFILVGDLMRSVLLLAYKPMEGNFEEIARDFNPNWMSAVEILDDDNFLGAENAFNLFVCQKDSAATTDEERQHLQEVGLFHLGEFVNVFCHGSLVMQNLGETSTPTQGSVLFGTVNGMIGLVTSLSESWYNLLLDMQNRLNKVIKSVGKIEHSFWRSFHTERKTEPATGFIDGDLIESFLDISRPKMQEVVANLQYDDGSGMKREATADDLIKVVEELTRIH
T6 sequence (P15170 whole entry): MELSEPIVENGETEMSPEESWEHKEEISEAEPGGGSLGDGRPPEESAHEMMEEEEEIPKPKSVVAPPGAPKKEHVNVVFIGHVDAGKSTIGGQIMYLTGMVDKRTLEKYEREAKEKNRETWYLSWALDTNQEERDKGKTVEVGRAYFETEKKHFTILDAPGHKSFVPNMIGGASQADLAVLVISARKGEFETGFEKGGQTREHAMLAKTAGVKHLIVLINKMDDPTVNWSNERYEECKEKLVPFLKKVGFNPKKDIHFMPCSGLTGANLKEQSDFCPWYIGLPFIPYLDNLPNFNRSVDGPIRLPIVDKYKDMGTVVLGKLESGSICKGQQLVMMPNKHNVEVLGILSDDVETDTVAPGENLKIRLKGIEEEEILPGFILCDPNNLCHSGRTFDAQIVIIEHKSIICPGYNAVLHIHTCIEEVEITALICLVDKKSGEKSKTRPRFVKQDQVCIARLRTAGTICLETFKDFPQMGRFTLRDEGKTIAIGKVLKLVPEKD
T6 sequence (Q96SW2 whole entry): as the sequence (Q96SW2 whole entry) above
T6 sequence (Q16531 whole entry partner): as the sequence (Q16531 whole entry partner) above
T5 sequence (Q9UKS7 whole entry): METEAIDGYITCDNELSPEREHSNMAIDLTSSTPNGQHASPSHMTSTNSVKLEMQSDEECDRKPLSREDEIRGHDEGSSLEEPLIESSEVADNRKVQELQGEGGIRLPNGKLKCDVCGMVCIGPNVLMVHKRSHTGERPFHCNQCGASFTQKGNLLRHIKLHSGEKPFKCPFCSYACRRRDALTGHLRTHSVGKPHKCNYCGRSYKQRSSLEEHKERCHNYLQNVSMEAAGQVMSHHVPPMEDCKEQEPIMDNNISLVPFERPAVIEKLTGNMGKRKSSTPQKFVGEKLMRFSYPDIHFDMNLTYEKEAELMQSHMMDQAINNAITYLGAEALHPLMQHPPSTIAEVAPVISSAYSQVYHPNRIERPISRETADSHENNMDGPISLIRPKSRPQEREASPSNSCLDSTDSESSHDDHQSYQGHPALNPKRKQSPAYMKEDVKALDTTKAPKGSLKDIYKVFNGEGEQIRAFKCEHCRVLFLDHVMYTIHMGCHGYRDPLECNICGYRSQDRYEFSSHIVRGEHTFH
T5 sequence (Q96SW2 whole entry): as the sequence (Q96SW2 whole entry) above
T5 sequence (Q16531 whole entry partner): as the sequence (Q16531 whole entry partner) above
T1 sequence (Q9UKT9 whole entry): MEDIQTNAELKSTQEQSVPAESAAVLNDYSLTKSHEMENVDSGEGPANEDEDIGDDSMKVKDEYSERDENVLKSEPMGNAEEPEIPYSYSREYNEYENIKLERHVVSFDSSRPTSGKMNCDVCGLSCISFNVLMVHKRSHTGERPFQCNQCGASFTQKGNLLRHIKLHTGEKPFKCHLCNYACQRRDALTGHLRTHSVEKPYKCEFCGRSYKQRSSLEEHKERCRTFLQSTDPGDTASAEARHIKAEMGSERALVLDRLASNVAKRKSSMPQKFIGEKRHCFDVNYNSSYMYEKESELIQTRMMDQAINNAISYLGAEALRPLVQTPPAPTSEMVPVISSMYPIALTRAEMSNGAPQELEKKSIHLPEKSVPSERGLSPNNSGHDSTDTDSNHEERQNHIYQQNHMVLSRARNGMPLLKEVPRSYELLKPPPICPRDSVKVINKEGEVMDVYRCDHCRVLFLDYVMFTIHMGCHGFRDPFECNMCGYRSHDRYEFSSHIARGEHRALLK
T1 sequence (Q96SW2 whole entry): as the sequence (Q96SW2 whole entry) above
T1 sequence (Q16531 whole entry partner): as the sequence (Q16531 whole entry partner) above
T2 sequence (P30291 whole entry): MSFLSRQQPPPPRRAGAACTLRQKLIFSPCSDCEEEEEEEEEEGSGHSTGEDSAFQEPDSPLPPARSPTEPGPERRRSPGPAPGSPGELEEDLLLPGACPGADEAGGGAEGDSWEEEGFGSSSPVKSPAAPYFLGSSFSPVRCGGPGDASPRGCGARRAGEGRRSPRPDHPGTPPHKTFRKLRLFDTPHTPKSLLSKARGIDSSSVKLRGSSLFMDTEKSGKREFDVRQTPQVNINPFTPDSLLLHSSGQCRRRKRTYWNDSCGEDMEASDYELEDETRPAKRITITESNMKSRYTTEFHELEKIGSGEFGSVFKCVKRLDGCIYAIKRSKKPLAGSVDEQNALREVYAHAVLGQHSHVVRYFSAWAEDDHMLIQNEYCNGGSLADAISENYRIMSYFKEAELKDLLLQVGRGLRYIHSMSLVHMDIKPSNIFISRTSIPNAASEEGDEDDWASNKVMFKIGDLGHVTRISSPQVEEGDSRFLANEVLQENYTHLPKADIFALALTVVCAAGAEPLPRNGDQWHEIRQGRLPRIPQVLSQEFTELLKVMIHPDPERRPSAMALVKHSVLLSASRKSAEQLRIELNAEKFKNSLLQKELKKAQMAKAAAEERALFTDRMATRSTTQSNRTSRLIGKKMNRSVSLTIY
T2 sequence (Q96SW2 whole entry): as the sequence (Q96SW2 whole entry) above
T2 sequence (Q16531 whole entry partner): as the sequence (Q16531 whole entry partner) above

Row | SMILES | Degradation of substrate protein IKZF3 (substrate protein remaining %) (IKZF3) | Degradation of substrate protein WEE1 (substrate protein remaining %) (WEE1) | Degradation of substrate protein CK1a (substrate protein remaining %) (CK1a) | Degradation of substrate protein IKZF1 (substrate protein remaining %) (IKZF1) | Degradation of substrate protein IKZF2 (substrate protein remaining %) (IKZF2) | Degradation of substrate protein GSPT1 (substrate protein remaining %) (GSPT1)
1 | O=Cc1ccnc(NC2CCC(=O)NC2=O)c1 (stereo not drawn) [GT-07553, 2-((2,6-dioxopiperidin-3-yl)amino)isonicotinaldehyde] | B (B is defined as substrate protein remaining % > 80%) | A (A is defined as 0% ≤ substrate protein remaining % ≤ 80%) | B (B is defined as substrate protein remaining % > 80%) | A (A is defined as 0% ≤ substrate protein remaining % ≤ 80%) | A (A is defined as 0% ≤ substrate protein remaining % ≤ 80%) | B (B is defined as substrate protein remaining % > 80%)
2 | O=Cc1cncc(NC2CCC(=O)NC2=O)c1 (stereo not drawn) [GT-07554, 5-((2,6-dioxopiperidin-3-yl)amino)nicotinaldehyde] | A (A is defined as 0% ≤ substrate protein remaining % ≤ 80%) | A (A is defined as 0% ≤ substrate protein remaining % ≤ 80%) | A (A is defined as 0% ≤ substrate protein remaining % ≤ 80%) | A (A is defined as 0% ≤ substrate protein remaining % ≤ 80%) | A (A is defined as 0% ≤ substrate protein remaining % ≤ 80%) | B (B is defined as substrate protein remaining % > 80%)
3 | O=C1CCN(c2cnc(CO)c(F)c2)C(=O)N1 [GT-07555, 1-(5-fluoro-6-(hydroxymethyl)pyridin-3-yl)dihydropyrimidine-2,4(1H,3H)-dione] | A (A is defined as 0% ≤ substrate protein remaining % ≤ 80%) | A (A is defined as 0% ≤ substrate protein remaining % ≤ 80%) | A (A is defined as 0% ≤ substrate protein remaining % ≤ 80%) | A (A is defined as 0% ≤ substrate protein remaining % ≤ 80%) | A (A is defined as 0% ≤ substrate protein remaining % ≤ 80%) | A (A is defined as 0% ≤ substrate protein remaining % ≤ 80%)
4 | O=C1CCN(c2cnc(F)c(CO)c2)C(=O)N1 [GT-07556, 1-(6-fluoro-5-(hydroxymethyl)pyridin-3-yl)dihydropyrimidine-2,4(1H,3H)-dione] | A (A is defined as 0% ≤ substrate protein remaining % ≤ 80%) | A (A is defined as 0% ≤ substrate protein remaining % ≤ 80%) | A (A is defined as 0% ≤ substrate protein remaining % ≤ 80%) | A (A is defined as 0% ≤ substrate protein remaining % ≤ 80%) | B (B is defined as substrate protein remaining % > 80%) | B (B is defined as substrate protein remaining % > 80%)
